The source of these data is publication PMC4336642 (Journal of neuroimmune pharmacology : the official journal …, 2015).

SMILES strings stand for the structures. ≈ marks a conversion by molar mass, not a printed value. Some results are limits rather than exact numbers.

Data set [1] has as its system BV-2 cells. The experiment in a line: MTT cytotoxicity assay, microglia model. The data set is classed as cell-based, murine. Particulars: Mus musculus, BV-2, 24 h, read-out: IC50, Microglia. (In general: Tetrazolium assays rely on reduction of a dye to a coloured formazan, in cell work by metabolically active cells.)
Data set [2] relates to bEnd.3 cells. Put plainly: MTT cytotoxicity assay, BBB model. The data set is classed as cell-based, murine. The note with it: Mus musculus, BEND3, 24 h, read-out: IC50, BBB.
Data set [3] deals with SH-SY5Y cells. The experiment in a line: MTT cytotoxicity assay, neurons model. The data set is classed as cell-based. The note with it: Homo sapiens, 24 h, read-out: IC50, Neurons.
Data set [4] deals with A172 cells. The experiment in a line: MTT cytotoxicity assay, astrocytes model. It is filed as cell-based. The note with it: Homo sapiens, A 172, 24 h, read-out: IC50, Astrocytes.
Data set [5] has as its system HepG2 cells.

Usually IC50 stands for the concentration needed to halve the response being measured. As to `Cc1cn([C@H]2C[C@H](N=[N+]=[N-])[C@@H](CO)O2)c(=O)[nH]c1=O` [Z, 3’-azido-3’-deoxythymidine], the IC50 in data set [1] is 800 µg/mL (≈ 2.99 mM); in data set [2] it was above 1000 µg/mL; in data set [3], above 1000 µg/mL; in data set [4], above 1000 µg/mL. In data set [5], the “reduction in the mtDNA/nuDNA ratio / mitochondrial toxicity” value was “two-fold reduction”.
